Results published in ChEMBL document CHEMBL1201862, “PubChem BioAssay data set” (2004).
Active and inactive are the calls of the source.

Legend:
[1] = target: T1, Tyrosine-protein phosphatase non-receptor type 22 (Homo sapiens, UniProt Q9Y2R2); experiment: inhibition of lymphoid tyrosine phosphatase LYP – biochemical, pCAP fluorogenic substrate, fluorescence, set 3, SAR follow-up (AID 449727); format: functional
T1 sequence (Q9Y2R2 whole entry): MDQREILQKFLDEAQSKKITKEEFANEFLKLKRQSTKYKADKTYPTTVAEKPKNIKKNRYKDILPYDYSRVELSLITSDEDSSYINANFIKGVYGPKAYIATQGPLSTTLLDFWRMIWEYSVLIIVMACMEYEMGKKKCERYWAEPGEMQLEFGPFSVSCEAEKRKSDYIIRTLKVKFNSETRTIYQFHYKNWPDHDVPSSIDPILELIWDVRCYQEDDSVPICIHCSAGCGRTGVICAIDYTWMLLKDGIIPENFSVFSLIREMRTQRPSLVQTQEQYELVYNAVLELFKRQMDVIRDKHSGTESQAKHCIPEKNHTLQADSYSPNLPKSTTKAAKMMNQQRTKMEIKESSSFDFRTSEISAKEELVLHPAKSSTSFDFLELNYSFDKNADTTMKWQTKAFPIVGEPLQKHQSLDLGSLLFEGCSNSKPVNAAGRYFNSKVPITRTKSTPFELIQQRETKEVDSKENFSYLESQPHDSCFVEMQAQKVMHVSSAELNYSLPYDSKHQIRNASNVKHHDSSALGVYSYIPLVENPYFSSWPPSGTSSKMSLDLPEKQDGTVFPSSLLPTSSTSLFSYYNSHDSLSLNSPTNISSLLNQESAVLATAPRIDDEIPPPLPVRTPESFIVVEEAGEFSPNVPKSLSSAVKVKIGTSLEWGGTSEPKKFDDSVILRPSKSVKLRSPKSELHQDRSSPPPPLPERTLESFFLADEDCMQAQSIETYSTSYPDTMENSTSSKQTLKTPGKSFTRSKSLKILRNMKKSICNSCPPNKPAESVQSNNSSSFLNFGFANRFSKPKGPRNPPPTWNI

[2] = target: T1, Tyrosine-protein phosphatase non-receptor type 22; experiment: SAR LYP1 Fluorescent Assay using OMFP substrate for In Vitro dose response studies - Set 3. [Related pubchem assays (depositor defined):AID1779, AID1784, AID2140, AID2686]; format: functional
[3] = target: Glyceraldehyde-3-phosphate dehydrogenase (Homo sapiens, UniProt P04406)
Sequence of Glyceraldehyde-3-phosphate dehydrogenase (P04406 whole entry): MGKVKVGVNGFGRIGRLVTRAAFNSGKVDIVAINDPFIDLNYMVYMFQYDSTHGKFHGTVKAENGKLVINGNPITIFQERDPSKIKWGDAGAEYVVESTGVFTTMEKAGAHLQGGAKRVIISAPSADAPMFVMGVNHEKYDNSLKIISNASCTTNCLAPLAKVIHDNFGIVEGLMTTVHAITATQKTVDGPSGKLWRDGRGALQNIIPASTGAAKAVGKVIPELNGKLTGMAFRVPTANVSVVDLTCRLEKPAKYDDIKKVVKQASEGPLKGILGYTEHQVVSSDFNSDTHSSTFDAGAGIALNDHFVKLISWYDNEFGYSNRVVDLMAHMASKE

[4] = target: Tyrosine-protein phosphatase non-receptor type 12 (Homo sapiens, UniProt Q05209); experiment: SAR Selectivity Analysis of small molecule inhibitors of PEST using pCAP in a fluorescence assay. [Related pubchem assays (depositor defined):AID1779, AID1784, AID2135]; format: functional
[5] = target: T2, Kappa-type opioid receptor (Homo sapiens, UniProt P41145); experiment: kappa opioid receptor activation potency – imaging, image-based, SAR follow-up (AID 2359); format: functional
T2 sequence (P41145 whole entry): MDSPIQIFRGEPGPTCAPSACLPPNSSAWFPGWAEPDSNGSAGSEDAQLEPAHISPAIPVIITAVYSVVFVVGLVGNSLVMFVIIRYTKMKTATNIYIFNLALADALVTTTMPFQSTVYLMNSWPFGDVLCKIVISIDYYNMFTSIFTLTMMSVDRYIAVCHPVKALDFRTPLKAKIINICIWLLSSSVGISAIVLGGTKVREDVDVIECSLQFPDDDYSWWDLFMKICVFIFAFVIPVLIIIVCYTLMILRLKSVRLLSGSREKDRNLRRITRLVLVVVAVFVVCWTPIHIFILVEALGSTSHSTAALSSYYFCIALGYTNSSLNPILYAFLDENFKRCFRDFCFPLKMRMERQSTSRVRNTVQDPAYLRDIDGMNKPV

[6] = target: T3, Delta-type opioid receptor (Homo sapiens, UniProt P41143); experiment: DOR agonists, SAR follow-up, image-based (AID 2370); format: functional
T3 sequence (P41143 whole entry): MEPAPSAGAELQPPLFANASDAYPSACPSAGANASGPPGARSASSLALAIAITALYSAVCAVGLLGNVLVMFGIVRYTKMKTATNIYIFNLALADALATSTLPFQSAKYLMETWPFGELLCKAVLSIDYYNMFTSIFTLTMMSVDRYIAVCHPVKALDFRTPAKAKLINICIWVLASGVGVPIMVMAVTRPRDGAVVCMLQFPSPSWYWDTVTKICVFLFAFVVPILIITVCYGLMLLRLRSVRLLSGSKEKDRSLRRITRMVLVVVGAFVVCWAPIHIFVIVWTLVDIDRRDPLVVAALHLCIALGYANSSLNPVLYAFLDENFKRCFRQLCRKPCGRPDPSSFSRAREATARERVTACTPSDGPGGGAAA

Mu-type opioid receptor [7] = target: T4, Mu-type opioid receptor (Homo sapiens, UniProt P35372); experiment: mu opioid receptor activators, image-based, SAR follow-up (AID 2352); format: functional
T4 sequence (P35372 whole entry): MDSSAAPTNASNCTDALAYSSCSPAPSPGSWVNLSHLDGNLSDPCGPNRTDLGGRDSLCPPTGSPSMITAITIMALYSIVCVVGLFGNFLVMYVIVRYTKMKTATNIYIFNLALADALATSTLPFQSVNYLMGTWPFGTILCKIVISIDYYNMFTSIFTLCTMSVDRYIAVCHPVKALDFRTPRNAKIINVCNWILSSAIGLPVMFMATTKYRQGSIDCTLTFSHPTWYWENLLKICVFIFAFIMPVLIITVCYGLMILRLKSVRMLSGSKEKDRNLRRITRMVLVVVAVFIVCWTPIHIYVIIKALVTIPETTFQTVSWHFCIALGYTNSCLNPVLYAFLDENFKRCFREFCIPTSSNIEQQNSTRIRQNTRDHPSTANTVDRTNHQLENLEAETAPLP

Mu-type opioid receptor [8] = target: T4, Mu-type opioid receptor; experiment: mu opioid receptor blockers – image-based, SAR follow-up (AID 2420); format: functional;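 further: compounds added before stimulation of receptor with agonist DAMGO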
[9] = target: T2, Kappa-type opioid receptor; experiment: SAR analysis of small molecule agonists of the kappa opioid receptor via a luminescent beta-arrestin assay. [Related pubchem assays (depositor defined):AID1777, AID1786, AID1966, AID2133, AID2136, AID2348, AID2352, AID2357, AID2359, AID2370, AID2420, AID2478, AID2491, AID2492, AID2493, AID2497, AID2498, AID2500, AID449737, AID488822, AID488842]; format: functional
[10] = target: T2, Kappa-type opioid receptor; experiment: kappa opioid receptor blockers, image-based, SAR follow-up (AID 2348); format: functional
[11] = target: T3, Delta-type opioid receptor; experiment: delta opioid receptor blockers – image-based, SAR follow-up (AID 2357); format: functional
X-box-binding protein 1 = X-box-binding protein 1 (Homo sapiens, UniProt P17861); format: functional, Cricetulus griseus;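 further: confirmatory dose-response counter-screen serving a CHOP assay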
Sequence of X-box-binding protein 1 (P17861 whole entry): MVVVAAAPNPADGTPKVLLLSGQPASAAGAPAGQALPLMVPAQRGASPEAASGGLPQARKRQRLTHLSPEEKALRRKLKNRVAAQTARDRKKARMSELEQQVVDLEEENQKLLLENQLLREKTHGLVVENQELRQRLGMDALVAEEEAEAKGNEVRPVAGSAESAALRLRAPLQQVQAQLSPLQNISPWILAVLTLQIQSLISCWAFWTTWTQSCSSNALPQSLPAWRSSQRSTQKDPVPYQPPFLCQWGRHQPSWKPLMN

[12] = THP-1 cell cytotoxicity, dose response, cytotoxicity control for non-replicating M. tuberculosis project (AID 489025); format: functional
cells = format: functional
Tumor necrosis factor = Tumor necrosis factor (Homo sapiens, UniProt P01375); experiment: analog potency on TNFa NF-kB signaling – cell-based, revised, SAR follow-up (AID 2337); format: functional
Sequence of Tumor necrosis factor (P01375 whole entry, the tested form may be a part): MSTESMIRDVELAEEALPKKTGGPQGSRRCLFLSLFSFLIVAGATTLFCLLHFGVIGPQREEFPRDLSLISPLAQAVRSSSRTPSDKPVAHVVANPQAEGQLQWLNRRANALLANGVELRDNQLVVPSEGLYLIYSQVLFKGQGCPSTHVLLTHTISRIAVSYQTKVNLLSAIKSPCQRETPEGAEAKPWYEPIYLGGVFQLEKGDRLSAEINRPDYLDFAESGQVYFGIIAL

[13] = target: T5, Nucleotide-binding oligomerization domain-containing protein 1 (Homo sapiens, UniProt Q9Y239); experiment: blockers of NOD1 pathway activity – revised, SAR follow-up (AID 2333); format: functional
T5 sequence (Q9Y239 whole entry): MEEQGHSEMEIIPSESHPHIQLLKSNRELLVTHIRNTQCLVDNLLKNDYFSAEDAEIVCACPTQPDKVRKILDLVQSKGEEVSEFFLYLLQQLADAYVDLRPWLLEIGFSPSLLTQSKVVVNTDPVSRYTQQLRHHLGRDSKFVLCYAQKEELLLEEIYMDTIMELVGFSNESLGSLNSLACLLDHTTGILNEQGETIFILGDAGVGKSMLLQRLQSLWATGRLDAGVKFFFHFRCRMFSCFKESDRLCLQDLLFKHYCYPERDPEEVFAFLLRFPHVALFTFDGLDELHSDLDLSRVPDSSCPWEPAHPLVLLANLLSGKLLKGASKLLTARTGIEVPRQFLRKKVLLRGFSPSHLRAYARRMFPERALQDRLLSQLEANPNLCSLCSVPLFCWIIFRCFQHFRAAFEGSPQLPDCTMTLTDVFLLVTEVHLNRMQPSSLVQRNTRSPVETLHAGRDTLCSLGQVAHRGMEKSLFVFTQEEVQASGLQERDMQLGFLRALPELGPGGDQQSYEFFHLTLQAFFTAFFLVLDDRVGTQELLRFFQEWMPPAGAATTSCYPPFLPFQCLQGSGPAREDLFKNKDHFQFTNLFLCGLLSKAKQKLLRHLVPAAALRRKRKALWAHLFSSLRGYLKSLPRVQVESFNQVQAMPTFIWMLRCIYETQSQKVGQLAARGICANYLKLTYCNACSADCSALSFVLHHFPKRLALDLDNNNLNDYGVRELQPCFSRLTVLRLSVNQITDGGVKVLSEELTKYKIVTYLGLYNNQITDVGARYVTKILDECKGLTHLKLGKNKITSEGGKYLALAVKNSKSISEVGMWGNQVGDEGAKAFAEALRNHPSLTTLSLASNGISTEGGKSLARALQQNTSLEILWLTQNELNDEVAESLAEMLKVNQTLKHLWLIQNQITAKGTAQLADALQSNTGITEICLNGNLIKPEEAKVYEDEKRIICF

HEK293 = experiment: cells; settings: Homo sapiens;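 further: cells exposed to compound for 14 hours overnight before viability readout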
[14] = HepG2 cell cytotoxicity, dose response, cytotoxicity control for non-replicating M. tuberculosis project (AID 489018); format: functional; settings: Mycobacterium tuberculosis
[15] = target: Nucleotide-binding oligomerization domain-containing protein 2 (Homo sapiens, UniProt Q9HC29); experiment: PubChem AID 2334; format: functional
Sequence of Nucleotide-binding oligomerization domain-containing protein 2 (Q9HC29 whole entry, the tested form may be a part): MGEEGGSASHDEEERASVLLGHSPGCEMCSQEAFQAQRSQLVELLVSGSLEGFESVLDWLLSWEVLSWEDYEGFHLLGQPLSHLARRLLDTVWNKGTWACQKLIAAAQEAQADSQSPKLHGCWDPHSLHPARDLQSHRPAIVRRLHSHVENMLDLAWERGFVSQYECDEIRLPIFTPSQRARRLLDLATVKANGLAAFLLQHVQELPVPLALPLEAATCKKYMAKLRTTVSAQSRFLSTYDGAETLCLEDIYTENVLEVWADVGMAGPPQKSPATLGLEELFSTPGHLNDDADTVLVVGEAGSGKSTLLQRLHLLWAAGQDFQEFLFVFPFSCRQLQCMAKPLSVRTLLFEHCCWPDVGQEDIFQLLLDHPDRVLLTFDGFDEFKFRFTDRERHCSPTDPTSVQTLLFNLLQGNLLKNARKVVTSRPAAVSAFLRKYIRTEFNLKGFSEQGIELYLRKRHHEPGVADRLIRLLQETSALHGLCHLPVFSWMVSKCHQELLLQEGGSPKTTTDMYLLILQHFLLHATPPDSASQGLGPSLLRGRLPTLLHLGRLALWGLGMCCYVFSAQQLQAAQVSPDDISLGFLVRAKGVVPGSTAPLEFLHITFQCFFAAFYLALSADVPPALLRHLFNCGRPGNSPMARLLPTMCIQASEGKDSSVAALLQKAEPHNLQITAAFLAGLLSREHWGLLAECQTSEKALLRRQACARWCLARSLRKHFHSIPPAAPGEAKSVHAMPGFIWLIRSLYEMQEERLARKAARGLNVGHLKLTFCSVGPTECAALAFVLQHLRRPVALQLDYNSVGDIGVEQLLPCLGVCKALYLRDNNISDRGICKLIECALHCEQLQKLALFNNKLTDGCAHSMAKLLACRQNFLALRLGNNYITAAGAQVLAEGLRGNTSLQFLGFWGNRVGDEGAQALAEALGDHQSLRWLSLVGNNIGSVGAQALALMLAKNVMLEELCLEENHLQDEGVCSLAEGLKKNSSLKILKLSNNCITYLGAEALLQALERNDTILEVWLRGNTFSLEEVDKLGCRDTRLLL

[16] = Vero E6 cell cytotoxicity, dose response, cytotoxicity control for non-replicating M. tuberculosis project, secondary assay (AID 492998); format: functional, VeroE6; settings: Vero C1008
[17] = target: Dual specificity protein phosphatase 3 (Homo sapiens, UniProt P51452); experiment: inhibition constants for human DUSP3 – biochemical, colorimetric, SAR follow-up (AID 2004)
Sequence of Dual specificity protein phosphatase 3 (P51452 whole entry, the tested form may be a part): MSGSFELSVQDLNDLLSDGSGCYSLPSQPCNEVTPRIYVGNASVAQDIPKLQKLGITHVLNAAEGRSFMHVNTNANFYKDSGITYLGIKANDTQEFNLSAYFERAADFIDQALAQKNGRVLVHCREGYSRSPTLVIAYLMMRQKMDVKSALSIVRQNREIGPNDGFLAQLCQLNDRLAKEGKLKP

[18] = target: T6, RNA-binding protein pos-1 (Caenorhabditis elegans, UniProt G5EF15); experiment: disruptors of C. elegans POS-1 RNA interaction – biochemical, fluorescence polarization, dose response (AID 1964);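 further: purified POS-1 fused to maltose binding protein made in E. coli; potency of compounds blocking POS-1 binding to fluorescent RNA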
T6 sequence (G5EF15 whole entry): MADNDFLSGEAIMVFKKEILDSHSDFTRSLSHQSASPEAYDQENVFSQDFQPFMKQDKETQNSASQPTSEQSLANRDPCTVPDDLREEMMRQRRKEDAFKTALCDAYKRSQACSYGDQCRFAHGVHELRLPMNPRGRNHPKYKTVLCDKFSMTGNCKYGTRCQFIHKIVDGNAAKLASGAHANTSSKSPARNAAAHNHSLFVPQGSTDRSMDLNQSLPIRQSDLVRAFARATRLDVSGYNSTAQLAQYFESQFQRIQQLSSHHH

[19] = target: Female germline-specific tumor suppressor gld-1 (Caenorhabditis elegans, UniProt Q17339); experiment: blockers of GLD-1/TGE RNA complex formation – biochemical, fluorescence polarization, C. elegans, dose response (AID 2802);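 further: fluorescence polarization of labeled TGE RNA bound by purified gld-1 protein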
Sequence of Female germline-specific tumor suppressor gld-1 (Q17339 whole entry): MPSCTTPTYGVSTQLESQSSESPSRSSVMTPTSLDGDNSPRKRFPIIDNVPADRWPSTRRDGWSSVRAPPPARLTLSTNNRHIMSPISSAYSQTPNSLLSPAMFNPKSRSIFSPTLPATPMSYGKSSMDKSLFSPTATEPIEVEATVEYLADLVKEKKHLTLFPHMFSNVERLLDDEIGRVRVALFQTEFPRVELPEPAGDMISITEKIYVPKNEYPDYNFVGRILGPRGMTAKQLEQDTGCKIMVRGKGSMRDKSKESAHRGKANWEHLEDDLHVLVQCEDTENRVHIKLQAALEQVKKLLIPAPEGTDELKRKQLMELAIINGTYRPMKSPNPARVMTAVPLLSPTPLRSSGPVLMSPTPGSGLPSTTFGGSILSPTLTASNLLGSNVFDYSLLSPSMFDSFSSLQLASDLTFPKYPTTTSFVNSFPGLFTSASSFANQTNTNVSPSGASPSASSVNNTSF

Protein Rev = Protein Rev (Human immunodeficiency virus type 1 group M subtype B (isolate HXB2)(HIV-1), UniProt P04618); experiment: blockers of HIV Rev/RRE RNA complex – biochemical, fluorescence polarization, HIV-1, dose response (AID 434976); set-up: species or system Human immunodeficiency virus 1
Sequence of Protein Rev (P04618 whole entry): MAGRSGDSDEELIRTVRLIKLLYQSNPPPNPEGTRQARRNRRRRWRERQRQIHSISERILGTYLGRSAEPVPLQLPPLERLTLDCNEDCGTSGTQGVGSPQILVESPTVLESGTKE

[20] = target: T7, Zinc finger protein mex-5 (Caenorhabditis elegans, UniProt Q9XUB2); experiment: potency of MEX-5 RNA-binding blockers – biochemical, C. elegans, fluorescence polarization, dose response (AID 1960)
T7 sequence (Q9XUB2 whole entry): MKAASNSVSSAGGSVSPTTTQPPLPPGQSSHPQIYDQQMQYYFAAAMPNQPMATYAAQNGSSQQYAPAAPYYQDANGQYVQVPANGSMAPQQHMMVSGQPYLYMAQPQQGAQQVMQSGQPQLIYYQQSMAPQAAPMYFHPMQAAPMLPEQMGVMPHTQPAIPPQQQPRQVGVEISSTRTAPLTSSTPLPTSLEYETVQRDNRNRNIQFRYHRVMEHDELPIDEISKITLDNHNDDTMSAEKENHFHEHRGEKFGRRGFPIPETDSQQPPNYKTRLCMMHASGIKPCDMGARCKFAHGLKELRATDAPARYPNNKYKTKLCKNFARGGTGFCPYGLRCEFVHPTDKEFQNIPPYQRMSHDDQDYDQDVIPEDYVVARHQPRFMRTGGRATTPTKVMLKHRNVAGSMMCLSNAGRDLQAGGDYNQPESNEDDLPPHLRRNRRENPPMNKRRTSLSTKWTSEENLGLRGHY

[21] = target: Neuropeptides B/W receptor type 1 (Homo sapiens, UniProt P48145); experiment: human NPBW1 receptor blockade, IC50 – cell-based, fluorescence, dose response, late-stage follow-up (AID 463251); format: functional
Sequence of Neuropeptides B/W receptor type 1 (P48145 whole entry): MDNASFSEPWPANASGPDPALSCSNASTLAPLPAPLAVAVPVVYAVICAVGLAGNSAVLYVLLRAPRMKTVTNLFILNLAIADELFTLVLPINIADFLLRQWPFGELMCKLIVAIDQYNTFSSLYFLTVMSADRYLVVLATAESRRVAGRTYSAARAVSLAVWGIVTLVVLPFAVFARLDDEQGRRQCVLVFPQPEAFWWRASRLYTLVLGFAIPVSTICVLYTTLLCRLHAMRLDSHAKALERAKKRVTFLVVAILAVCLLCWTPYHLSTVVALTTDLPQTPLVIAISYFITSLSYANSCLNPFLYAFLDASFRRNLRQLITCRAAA

[22] = target: Melanin-concentrating hormone receptor 1 (Homo sapiens, UniProt Q99705); experiment: Late-stage fluorescence-based counterscreen for antagonists of the G-protein coupled receptor 7 (GPR7): cell-based dose response assay to identify antagonists of the melanin-concentrating hormone receptor 1 (MCHR1). [Related pubchem assays (depositor defined):AID1861, AID1880, AID1952, AID2148, AID2251, AID2257, AID485339]; format: functional;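 further: stimulated with 30 nM MCH peptide agonist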
[23] = reduction of Shn3 3'UTR-driven luciferase in osteoblasts – cell-based, Clone20 osteoblasts, firefly luciferase, cherry-picked, dose response (AID 624132); format: functional;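 further: firefly luciferase luminescence from reporter carrying the Shn3 3'UTR in osteoblasts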
[24] = target: Neurotensin receptor type 1 (Homo sapiens, UniProt P30989); format: functional;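 further: Image-based confirmatory dose-response assay measuring agonist activity at NTR1; NTR1-expressing U2OS osteosarcoma cells imaged for beta-arrestin GFP spot formation; agonist potency where compounds increase beta-arrestin recruitment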
Sequence of Neurotensin receptor type 1 (P30989 whole entry): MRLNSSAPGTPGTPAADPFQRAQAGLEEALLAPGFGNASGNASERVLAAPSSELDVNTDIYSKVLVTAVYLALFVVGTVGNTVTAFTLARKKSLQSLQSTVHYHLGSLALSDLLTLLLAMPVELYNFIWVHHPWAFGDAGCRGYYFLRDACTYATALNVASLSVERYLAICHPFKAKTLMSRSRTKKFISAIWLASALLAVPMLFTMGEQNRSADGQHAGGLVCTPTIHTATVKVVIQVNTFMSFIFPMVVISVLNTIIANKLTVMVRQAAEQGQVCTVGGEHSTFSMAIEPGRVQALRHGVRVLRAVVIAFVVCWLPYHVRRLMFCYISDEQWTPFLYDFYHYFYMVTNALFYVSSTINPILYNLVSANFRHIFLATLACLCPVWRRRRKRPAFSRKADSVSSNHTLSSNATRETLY

Trypsin = Trypsin (Sus scrofa, UniProt P00761); experiment: trypsin protease activity blockade – biochemical, quenched peptide fluorescence, cherry-pick, selectivity assay for Rce1 protease inhibitor project, dose response (AID 488789)
Sequence of Trypsin (P00761 whole entry, the tested form may be a part): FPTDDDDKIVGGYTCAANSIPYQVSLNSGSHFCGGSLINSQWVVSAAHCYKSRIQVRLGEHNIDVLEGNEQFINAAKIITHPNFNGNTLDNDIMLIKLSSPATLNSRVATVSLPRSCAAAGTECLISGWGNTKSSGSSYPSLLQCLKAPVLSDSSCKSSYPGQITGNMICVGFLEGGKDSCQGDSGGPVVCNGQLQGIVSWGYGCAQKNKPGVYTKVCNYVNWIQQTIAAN

[25] = target: NACHT, LRR and PYD domains-containing protein 3 (Homo sapiens, UniProt Q96P20); experiment: NALP3 inhibitors in yeast, dose response, luminescent (AID 488799); format: functional
[26] = target: T2, Kappa-type opioid receptor; experiment: kappa opioid receptor blockers, cell-based, luminescence, beta-arrestin, SAR follow-up (AID 2285); format: functional

SMILES: O=C(O)c1ccc(-c2ccc(/C=C3\SC(=S)N(c4ccc([N+](=O)[O-])cc4)C3=O)o2)cc1
- IC50 [1]: 0.602 µM (active)
- IC50 [2]: 0.821 µM (active)
- IC50 [3]: > 100 µM (not active)
- IC50 [4]: 0.216 µM (active)

SMILES: CCCN(Cc1cc2ccc(C)cc2[nH]c1=O)C(=O)c1ccccn1
- EC50 [5]: > 32 µM (inactive)
- EC50 [6]: > 32 µM (inactive)
- EC50 (Mu-type opioid receptor [7]): > 32 µM (inactive)
- IC50 (Mu-type opioid receptor [8]): > 32 µM (inactive)
- EC50 [9]: > 10 µM (inactive)
- IC50 [10]: > 32 µM (inactive)
- IC50 [11]: > 32 µM (inactive)

SMILES: Cc1sc2ncnc(N3CCCCC3C)c2c1C (stereo unspecified)
- Absolute IC50 (XBP1) (X-box-binding protein 1): 10 µM

SMILES: CC(=O)Nc1nc2ccccc2n1Cc1ccc(Cl)cc1
- CC50 [12]: 30.9 µM (active)
- IC50 (cells): 1.02 µM (active)
- IC50 (Tumor necrosis factor): > 20 µM (inactive)
- IC50 [13]: 18.8 µM (active)
- IC50 (HEK293): > 20 µM (inactive)
- CC50 [14]: > 20 µM (active)
- IC50 [15]: > 20 µM (inactive)
- CC50 [16]: 12.9 µM (active)

SMILES: COc1cccc(/C=C2/C(=O)NC(=O)N(c3cccc(C)c3)C2=O)c1O
- Ki [17]: 33.1 µM (inactive)

SMILES: O=C(CN1C(=O)C2CC=C(Cl)CC2C1=O)NCc1ccccc1 (stereo unspecified)
- EC50 [18]: 34.1 µM (active)
- IC50 [19]: 7.72 µM (active)
- IC50 (Protein Rev): 25.8 µM (not active)
- EC50 [20]: 24.7 µM (active)

SMILES: COc1cc(OC)cc(Oc2c(Cl)cnn(-c3ccc(C(C)C)cc3)c2=O)c1
- IC50 [21]: 8.2 µM (active)
- IC50 [22]: 10.5 µM (inactive)

SMILES: CCOc1cc(/C=C2\C(=O)ON=C2C)ccc1OCc1ccccc1
- AC50 [23]: 10.4 µM (active)
- EC50 [24]: 13.9 µM (active)

SMILES: CCn1cc(C(=O)NCCO)c(=O)c2cc(F)c(N3CCN(C)CC3)cc21
- AC50 (Trypsin): 39.2 µM (active)

SMILES: O=c1c2cc(Cl)ccc2nc(-c2ccc([N+](=O)[O-])cc2)n1O
- CC50 [12]: 22.6 µM (active)
- IC50 (cells): 17.8 µM (active)
- IC50 [25]: 6.6 µM (active)
- CC50 [16]: 17.3 µM (active)

SMILES: O=C(c1ccc(CNS(=O)(=O)c2ccccc2)cc1)N1CCN(Cc2ccccc2)CC1
- EC50 [5]: > 32 µM (inactive)
- EC50 [6]: > 32 µM (inactive)
- EC50 (Mu-type opioid receptor [7]): > 32 µM (inactive)
- IC50 (Mu-type opioid receptor [8]): > 32 µM (inactive)
- IC50 [26]: > 10 µM (inactive)
- IC50 [10]: > 32 µM (inactive)
- IC50 [11]: > 32 µM (inactive)
